Measured values taken from ChEMBL document CHEMBL5550088, “Design, synthesis and evaluate of indazolylaminoquinazoline derivatives as potent Tropomyosin receptor kinase (TRK) inhibitors” (Bioorg Med Chem, 2024).

What was measured:
[1] = biological target: High affinity nerve growth factor receptor (Homo sapiens, UniProt P04629); experiment: Inhibition of wild type TRKA (unknown origin) preincubated for 30 mins followed by ATP and U Light-poly GT addition and measured after 2 hrs by multilabel plate reader method
[2] = tested on: BaF3; experiment: Antiproliferative activity against mouse BaF3 cells harbouring ETV6-TRKA wildtype assessed as cell viability measured after 72 hrs by CCK-8 method; conditions: BaF3, 72 h
[3] = tested on: BaF3; experiment: Antiproliferative activity against mouse BaF3 cells harbouring ETV6-TRKB wildtype assessed as cell viability measured after 72 hrs by CCK-8 method; conditions: BaF3, 72 h
[4] = tested on: BaF3; experiment: cells; conditions: Mus musculus, BaF3, 72 h
[5] = tested on: BaF3; experiment: cells; conditions: Mus musculus, BaF3, 72 h; remark: listed apart in the source

Chain of High affinity nerve growth factor receptor (P04629 whole entry): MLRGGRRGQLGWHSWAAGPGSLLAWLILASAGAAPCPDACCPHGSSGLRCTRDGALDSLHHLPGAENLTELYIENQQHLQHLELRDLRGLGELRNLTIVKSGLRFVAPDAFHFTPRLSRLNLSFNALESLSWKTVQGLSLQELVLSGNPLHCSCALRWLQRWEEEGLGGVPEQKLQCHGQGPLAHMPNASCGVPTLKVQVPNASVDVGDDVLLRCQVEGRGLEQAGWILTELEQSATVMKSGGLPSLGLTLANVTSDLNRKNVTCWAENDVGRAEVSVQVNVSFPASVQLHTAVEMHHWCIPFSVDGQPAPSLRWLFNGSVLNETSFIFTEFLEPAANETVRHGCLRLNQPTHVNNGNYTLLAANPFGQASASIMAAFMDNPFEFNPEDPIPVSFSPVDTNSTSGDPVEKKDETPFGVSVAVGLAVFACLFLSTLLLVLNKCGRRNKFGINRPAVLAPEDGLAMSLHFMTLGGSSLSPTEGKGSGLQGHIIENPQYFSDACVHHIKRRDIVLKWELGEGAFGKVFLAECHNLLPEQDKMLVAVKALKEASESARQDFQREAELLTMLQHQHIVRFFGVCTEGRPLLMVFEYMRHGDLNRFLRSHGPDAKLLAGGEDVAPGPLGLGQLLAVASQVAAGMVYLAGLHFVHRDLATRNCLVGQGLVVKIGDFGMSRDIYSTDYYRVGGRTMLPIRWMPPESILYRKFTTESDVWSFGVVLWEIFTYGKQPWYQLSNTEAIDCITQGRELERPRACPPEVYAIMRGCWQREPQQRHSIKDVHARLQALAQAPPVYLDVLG

Compound	IC50 [1] [nM]	IC50 [2] [nM]	IC50 [3] [nM]	IC50 [4] [nM]	IC50 [5] [nM]
CN(C)C1CCN(c2ccc3c(Nc4n[nH]c5ccc(Cc6cc(F)cc(F)c6)cc45)n[nH]c3c2)C1 (stereo unspecified)	1.9				
CN(C)C1CCN(c2ccc3c(Nc4n[nH]c5ccc(Cc6cc(F)cc(F)c6)cc45)ncnc3c2)C1 (stereo unspecified)	2.3				
O=C(Nc1cnn2ccc(N3CCC[C@@H]3c3cc(F)ccc3F)nc12)N1CC[C@H](O)C1 [LAROTRECTINIB]		14.6	4.9	2890	755
